One experiment addresses human TLR9 (Homo sapiens (Human), UniProt Q9NR96). The experiment is described as follows: TLR9 inhibition reporter assay (HEK-Blue SEAP).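 Note: SEAP driven by an IFN-β minimal promoter with NF-κB and AP-1 sites, read after 22 h, compounds dosed 0.05 nM–50 µM, inhibition scaled between agonist plus DMSO and reference-inhibitor wells.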 Conditions: read-out: TLR9 IC50; HEK-Blue cells overexpressing human TLR9, ODN2006 5 nM stimulation, SEAP reporter. (A reporter such as luciferase makes a cellular process visible.)
A further experiment concerns the target human TLR8 (Homo sapiens (Human), UniProt Q9NR97). Kind of experiment: TLR8 inhibition reporter assay (HEK-Blue SEAP).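 Note: SEAP driven by IFN-β minimal promoter carrying NF-κB and AP-1 sites, compounds dosed 0.05 nM to 50 µM for 22 h, inhibition scaled between agonist-plus-DMSO and reference-inhibitor wells.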 Particulars: read-out: TLR8 IC50; HEK-Blue cells overexpressing human TLR8, R848 15.9 μM stimulation, SEAP reporter.
The next experiment has as its target human TLR7 (Homo sapiens (Human), UniProt Q9NYK1). The experiment is described as follows: TLR7 inhibition reporter assay (HEK-Blue SEAP). Format: cell-based. Conditions: HEK-Blue cells overexpressing human TLR7, gardiquimod 7.5 μM stimulation, SEAP reporter.

In general, IC50 refers to the midpoint of a concentration-inhibition curve.

human TLR8, sequence (Q9NR97 27-1041): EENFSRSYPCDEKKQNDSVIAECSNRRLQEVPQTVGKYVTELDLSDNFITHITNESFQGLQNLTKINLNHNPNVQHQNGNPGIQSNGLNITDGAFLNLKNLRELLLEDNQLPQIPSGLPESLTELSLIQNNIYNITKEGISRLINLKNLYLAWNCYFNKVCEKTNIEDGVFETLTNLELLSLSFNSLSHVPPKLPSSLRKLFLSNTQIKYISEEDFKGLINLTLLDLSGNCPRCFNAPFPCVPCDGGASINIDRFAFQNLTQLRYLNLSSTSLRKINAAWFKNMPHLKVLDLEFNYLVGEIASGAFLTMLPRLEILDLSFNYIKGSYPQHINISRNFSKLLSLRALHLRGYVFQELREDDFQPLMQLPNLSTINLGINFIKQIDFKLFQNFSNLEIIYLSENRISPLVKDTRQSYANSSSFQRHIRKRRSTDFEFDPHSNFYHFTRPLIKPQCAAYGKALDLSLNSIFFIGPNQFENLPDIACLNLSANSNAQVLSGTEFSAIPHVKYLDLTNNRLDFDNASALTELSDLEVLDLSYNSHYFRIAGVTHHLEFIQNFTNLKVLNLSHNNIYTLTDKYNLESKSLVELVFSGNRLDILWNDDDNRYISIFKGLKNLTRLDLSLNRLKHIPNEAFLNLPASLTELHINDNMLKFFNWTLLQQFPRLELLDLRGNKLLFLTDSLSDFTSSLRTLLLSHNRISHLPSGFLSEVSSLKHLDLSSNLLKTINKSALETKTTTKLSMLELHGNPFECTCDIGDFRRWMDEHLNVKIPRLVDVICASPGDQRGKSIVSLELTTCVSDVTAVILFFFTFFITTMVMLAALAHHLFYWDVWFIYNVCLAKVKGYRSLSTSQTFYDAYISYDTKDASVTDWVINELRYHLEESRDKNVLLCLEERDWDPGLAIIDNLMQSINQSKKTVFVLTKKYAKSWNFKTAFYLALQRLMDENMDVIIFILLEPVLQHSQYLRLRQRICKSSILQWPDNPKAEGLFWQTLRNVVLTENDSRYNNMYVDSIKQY
human TLR9, sequence (Q9NR96 26-1032): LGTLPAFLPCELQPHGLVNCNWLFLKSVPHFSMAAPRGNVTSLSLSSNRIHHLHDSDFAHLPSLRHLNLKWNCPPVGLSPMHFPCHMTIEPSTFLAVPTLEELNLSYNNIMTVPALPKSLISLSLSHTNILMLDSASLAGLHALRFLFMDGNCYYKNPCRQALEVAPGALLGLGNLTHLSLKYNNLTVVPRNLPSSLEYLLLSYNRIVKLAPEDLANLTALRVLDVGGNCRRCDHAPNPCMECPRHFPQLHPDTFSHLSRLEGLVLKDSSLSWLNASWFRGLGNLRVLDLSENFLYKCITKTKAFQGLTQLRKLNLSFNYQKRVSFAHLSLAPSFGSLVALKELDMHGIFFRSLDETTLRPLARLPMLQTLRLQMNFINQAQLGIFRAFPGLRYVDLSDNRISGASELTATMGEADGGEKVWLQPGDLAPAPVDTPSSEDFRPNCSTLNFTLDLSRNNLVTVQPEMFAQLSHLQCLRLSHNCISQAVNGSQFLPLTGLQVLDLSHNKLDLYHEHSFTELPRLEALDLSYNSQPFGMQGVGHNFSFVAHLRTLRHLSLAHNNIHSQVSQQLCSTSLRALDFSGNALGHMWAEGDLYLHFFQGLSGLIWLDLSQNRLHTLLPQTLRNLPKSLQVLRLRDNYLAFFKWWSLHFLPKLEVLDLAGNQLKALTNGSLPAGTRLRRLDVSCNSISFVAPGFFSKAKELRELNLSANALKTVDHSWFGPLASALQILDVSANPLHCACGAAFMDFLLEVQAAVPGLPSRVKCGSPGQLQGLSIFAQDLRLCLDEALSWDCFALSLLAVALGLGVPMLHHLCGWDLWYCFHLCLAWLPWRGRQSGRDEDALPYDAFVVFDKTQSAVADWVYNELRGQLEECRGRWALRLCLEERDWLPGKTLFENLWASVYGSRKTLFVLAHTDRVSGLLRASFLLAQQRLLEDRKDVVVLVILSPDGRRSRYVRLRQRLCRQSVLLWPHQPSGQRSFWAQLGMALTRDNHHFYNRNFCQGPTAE
human TLR7, sequence (Q9NYK1 27-1049): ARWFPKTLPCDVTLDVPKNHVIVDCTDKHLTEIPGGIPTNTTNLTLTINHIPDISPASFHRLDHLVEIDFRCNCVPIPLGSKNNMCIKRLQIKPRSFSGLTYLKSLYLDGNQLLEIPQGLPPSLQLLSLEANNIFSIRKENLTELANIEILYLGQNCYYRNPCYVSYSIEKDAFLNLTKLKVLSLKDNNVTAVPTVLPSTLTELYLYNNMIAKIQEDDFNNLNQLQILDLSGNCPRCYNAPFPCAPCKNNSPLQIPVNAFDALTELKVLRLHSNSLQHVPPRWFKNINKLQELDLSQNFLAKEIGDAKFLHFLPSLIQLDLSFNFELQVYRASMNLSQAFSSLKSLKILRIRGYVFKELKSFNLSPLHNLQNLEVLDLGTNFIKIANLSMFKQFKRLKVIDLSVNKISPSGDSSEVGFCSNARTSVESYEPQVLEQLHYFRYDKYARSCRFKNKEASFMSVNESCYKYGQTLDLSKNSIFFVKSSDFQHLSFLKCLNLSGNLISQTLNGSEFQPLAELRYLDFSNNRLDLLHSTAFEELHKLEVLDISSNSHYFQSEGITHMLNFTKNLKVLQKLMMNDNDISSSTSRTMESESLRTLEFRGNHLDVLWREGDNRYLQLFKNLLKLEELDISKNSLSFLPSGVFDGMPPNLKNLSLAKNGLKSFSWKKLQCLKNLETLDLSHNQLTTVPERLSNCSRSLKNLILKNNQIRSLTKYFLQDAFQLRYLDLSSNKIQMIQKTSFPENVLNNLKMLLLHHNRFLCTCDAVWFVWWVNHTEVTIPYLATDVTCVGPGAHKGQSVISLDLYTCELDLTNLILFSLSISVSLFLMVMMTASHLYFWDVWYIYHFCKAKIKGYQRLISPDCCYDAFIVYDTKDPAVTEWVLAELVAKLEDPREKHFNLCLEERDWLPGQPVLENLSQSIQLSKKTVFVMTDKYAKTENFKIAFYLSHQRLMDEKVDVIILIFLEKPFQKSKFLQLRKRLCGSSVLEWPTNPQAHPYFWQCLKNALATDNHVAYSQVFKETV
Protocol for human TLR9: HEK-Blue™-cells (Invivogen) overexpressing human TLR7, TLR8 or TLR9 receptors were used for screening inhibitors of these receptors using an inducible SEAP (secreted embryonic alkaline phosphatase) reporter gene under the control of the IFN-β minimal promoter fused to five NF-κB and AP-1-binding sites. Briefly, cells are seeded into Greiner 384 well plates (15000 cells per well for TLR7, 20,000 for TLR8 and 25,000 for TLR9) and then treated with test compounds in DMSO to yield a final dose response concentration range of 0.05 nM-50 μM. After a 30 minute compound pre-treatment at room temperature, the cells are then stimulated with a TLR7 ligand (gardiquimod at a final concentration of 7.5 μM), TLR8 ligand (R848 at a final concentration of 15.9 μM) or TLR9 ligand (ODN2006 at a final concentration of 5 nM) to activate NF-κB and AP-1 which induce the production of SEAP. After a 22 hour incubation at 37° C., 5% CO2, SEAP levels are determined with the addition of HEK-Blue™ Detection reagent (Invivogen), a cell culture medium that allows for detection of SEAP, according to manufacturer's specifications.

For `COc1cc(-c2[nH]c3ccc(C4CCC(N(C)C5CC5)CC4)nc3c2C(C)C)cn2ncnc12` (stereo not drawn) [Example 171], the figures for the half-inhibitory concentration (IC50) on human TLR9, on human TLR8 and on human TLR7 were 560 nM, 1.8 nM and 0.45 nM, respectively.

On to `COc1cc(-c2[nH]c3ccc(C4CCC(N(C)C5CC5)CC4)nc3c2C(C)C)cn2ncnc12` (stereo not drawn) [Example 172], for which the IC50 on human TLR9 turned out to be 1790 nM; at human TLR8 it was 13 nM; against human TLR7, 1.9 nM.

With `COc1cc(-c2[nH]c3ccc(C4CCC(N5CCC[C@H]5CO)CC4)nc3c2C(C)C)cn2ncnc12` (stereo partly drawn) [Example 173], the IC50 on human TLR9 came to 578 nM; at human TLR8, 10 nM; against human TLR7, 2 nM.

Turning to `COc1cc(-c2[nH]c3ccc(C4CCC(N5CCCC5)CC4)nc3c2C(C)C)cn2ncnc12` (stereo not drawn) [Example 174], the results for the IC50 on human TLR9, at human TLR8 and on human TLR7 were 1470 nM, 37 nM and 4.3 nM, respectively.

With `COc1cc(-c2[nH]c3ccc(C4CCC(N(C)CCC#N)CC4)nc3c2C(C)C)cn2ncnc12` (stereo not drawn) [Example 175], the results for the IC50 on human TLR9, at human TLR8 and at human TLR7 were 926 nM, 2 nM and 0.35 nM, respectively.

For the molecule `COc1cc(-c2[nH]c3ccc(C4CCC(=O)CC4)nc3c2C(C)C)cn2ncnc12` [Example 176], the IC50 worked out at 16000 nM at human TLR9, 84 nM on human TLR8 and 5.2 nM against human TLR7.

As for `COc1cc(-c2[nH]c3ccc(C4CCC(N(C)C)CC4)nc3c2C(C)C)cn2ncnc12` (stereo not drawn) [Example 177], the half-maximal inhibitory concentration (IC50) on human TLR9 is 148 nM; on human TLR8, 2.5 nM; against human TLR7 it was 0.28 nM.

Turning to `COc1cc(-c2[nH]c3ccc(C4CCC(NC5COC5)CC4)nc3c2C(C)C)cn2ncnc12` (stereo not drawn) [Example 178], the figures for the IC50 at human TLR9, at human TLR8 and at human TLR7 were 895 nM, 1.8 nM and 0.48 nM, respectively.

With `COc1cc(-c2[nH]c3ccc(C4CCC(N(C)C)CC4)nc3c2C(C)C)cn2ncnc12` (stereo not drawn) [Example 179], the concentration for half-maximal inhibition (IC50) on human TLR9 was determined as 1740 nM; on human TLR8 it was 7 nM; against human TLR7, 0.92 nM.

As for `COc1cc(-c2[nH]c3ccc(C4CCC(NC5COC5)CC4)nc3c2C(C)C)cn2ncnc12` (stereo not drawn) [Example 180], the IC50 at human TLR9 was 1870 nM; at human TLR8, 11 nM; against human TLR7, 2.8 nM.

For `COc1cc(-c2[nH]c3ccc(C4CCC(NCC(=O)N(C)C)CC4)nc3c2C(C)C)cn2ncnc12` (stereo not drawn) [Example 181], the IC50 was 561 nM on human TLR9, 13 nM at human TLR8 and 1.7 nM against human TLR7.

In the case of `CC(C)c1c(-c2cn(C)c3ncccc23)[nH]c2ccc(C3CCC(NCC(=O)N(C)C)CC3)nc12` (stereo not drawn) [Example 182], the figures for the IC50 on human TLR9, at human TLR8 and against human TLR7 were 301 nM, 1.1 nM and 0.48 nM, respectively.

Regarding `CC(C)c1c(-c2cn(C)c3ncccc23)[nH]c2ccc(C3CCC(NCC(=O)N(C)C)CC3)nc12` (stereo not drawn) [Example 183], the IC50 at human TLR9 was 1030 nM; at human TLR8 it was 15 nM; against human TLR7, 5.6 nM.

`CC(C)c1c(-c2cn(C)c3ncccc23)[nH]c2ccc(C3CCC(NC4COC4)CC3)nc12` (stereo not drawn) [Example 184]: the values for the IC50 at human TLR9, on human TLR8 and against human TLR7 were 2050 nM, 18 nM and 8.8 nM, respectively.

Take `CC(C)c1c(-c2cn(C)c3ncccc23)[nH]c2ccc(C3CCC(NC4COC4)CC3)nc12` (stereo not drawn) [Example 185]: the IC50 at human TLR9 was 10300 nM; on human TLR8, 110 nM; on human TLR7, 38 nM.

With `COc1cc(-c2[nH]c3ccc(C4CCC(NC5COC5)CC4)nc3c2C(C)C)cn2ncnc12` (stereo not drawn) [Example 186], the IC50 on human TLR9 was determined as 1010 nM; at human TLR8, 9.3 nM; against human TLR7 it was 2.2 nM.

`COc1cc(-c2[nH]c3ccc(C4CCC(N(C)C)CC4)nc3c2C(C)C)cn2ncnc12` (stereo not drawn) [Example 187]: the IC50 was determined as 4220 nM at human TLR9, 20 nM at human TLR8 and 2.1 nM on human TLR7.

Turning to `CNC1CCC(c2ccc3[nH]c(-c4cc(OC)c5ncnn5c4)c(C(C)C)c3n2)CC1` (stereo not drawn) [Example 188], the IC50 at human TLR9 worked out at 158 nM; at human TLR8, 2.5 nM; on human TLR7, 0.29 nM.

In the case of `CNC1CCC(c2ccc3[nH]c(-c4cc(OC)c5ncnn5c4)c(C(C)C)c3n2)CC1` (stereo not drawn) [Example 189], the IC50 on human TLR9 was 313 nM; on human TLR8, 6.7 nM; against human TLR7, 1.6 nM.

Turning to `COc1cc(-c2[nH]c3ccc(C4CCC(NCc5cnc(C)cn5)CC4)nc3c2C(C)C)cn2ncnc12` (stereo not drawn) [Example 190], the values for the IC50 on human TLR9, on human TLR8 and at human TLR7 were 353 nM, 2.8 nM and 0.8 nM, respectively.

`COc1cc(-c2[nH]c3ccc(C4CCC(N(C)CCO)CC4)nc3c2C(C)C)cn2ncnc12` (stereo not drawn) [Example 191]: the figures for the IC50 on human TLR9, at human TLR8 and against human TLR7 were 202 nM, 2.7 nM and 0.9 nM, respectively.

In the case of `COc1cc(-c2[nH]c3ccc(C4CCC(N5CCCC5)CC4)nc3c2C(C)C)cn2ncnc12` (stereo not drawn) [Example 192], the IC50 on human TLR9 worked out at 1110 nM; at human TLR8, 19 nM; at human TLR7, 3.1 nM.

For `COc1cc(-c2[nH]c3ccc(C4CCC(NC(C)C)CC4)nc3c2C(C)C)cn2ncnc12` (stereo not drawn) [Example 193], the values for the IC50 at human TLR9, at human TLR8 and against human TLR7 were 648 nM, 6 nM and 1.5 nM, respectively.

Turning to `COc1cc(-c2[nH]c3ccc(C4CCC(N5CCOCC5)CC4)nc3c2C(C)C)cn2ncnc12` (stereo not drawn) [Example 194], the IC50 on human TLR9 is 3590 nM; at human TLR8, 47 nM; on human TLR7 it was 8.6 nM.

For `COc1cc(-c2[nH]c3ccc(C4CCC(N5CCCC5)CC4)nc3c2C(C)C)cn2ncnc12` (stereo not drawn) [Example 195], the IC50 at human TLR9 was 530 nM; on human TLR8 it was 4.3 nM; against human TLR7 it was 0.8 nM.

Turning to `COc1cc(-c2[nH]c3ccc(C4CCC(NCc5cnc(C)cn5)CC4)nc3c2C(C)C)cn2ncnc12` (stereo not drawn) [Example 196], the figures for the concentration for half-maximal inhibition (IC50) at human TLR9, at human TLR8 and at human TLR7 were 712 nM, 10 nM and 1.7 nM, respectively.

In the case of `COc1cc(-c2[nH]c3ccc(C4CCC(N5CCC[C@H]5CO)CC4)nc3c2C(C)C)cn2ncnc12` (stereo partly drawn) [Example 197], the IC50 came out at 134 nM at human TLR9, 1.7 nM on human TLR8 and 0.34 nM on human TLR7.

Take `COCCN(C)C1CCC(c2ccc3[nH]c(-c4cc(OC)c5ncnn5c4)c(C(C)C)c3n2)CC1` (stereo not drawn) [Example 198]: the IC50 at human TLR9 worked out at 1140 nM; at human TLR8 it was 7.8 nM; on human TLR7, 1 nM.

Take `COc1cc(-c2[nH]c3ccc(C4CCC(N5CCCC5)CC4)nc3c2C(C)C)cn2ncnc12` (stereo not drawn) [Example 199]: the results for the IC50 on human TLR9, at human TLR8 and against human TLR7 were 1190 nM, 6.4 nM and 0.16 nM, respectively.

For the molecule `CC(C)c1c(-c2cn(C)c3ncccc23)[nH]c2ccc(C3CCC(N(C)CC(=O)N(C)C)CC3)nc12` (stereo not drawn) [Example 200], the IC50 was found to be 773 nM on human TLR9, 8.5 nM at human TLR8 and 1.8 nM against human TLR7.

For `CC(C)c1c(-c2cn(C)c3ncccc23)[nH]c2ccc(C3CCC(N(C)CC(=O)N(C)C)CC3)nc12` (stereo not drawn) [Example 201], the concentration for half-maximal inhibition (IC50) at human TLR9 came out at 570 nM; at human TLR8 it was 6 nM; at human TLR7 it was 1.5 nM.

For `COc1cc(-c2[nH]c3ccc(C4CCC(N(C)Cc5cnc(C)cn5)CC4)nc3c2C(C)C)cn2ncnc12` (stereo not drawn) [Example 202], the results for the IC50 on human TLR9, at human TLR8 and at human TLR7 were 2030 nM, 28 nM and 3.8 nM, respectively.

The record behind these values is patent publication US10544143B2, “4-azaindole compounds” (BRISTOL-MYERS SQUIBB COMPANY, priority 2017, dated 2020).
